# Laboratory results from ChEMBL document CHEMBL3994563 (Medchemcomm, 2016).
# Activity calls are given as the source filed them. The calls are words filed in the database; no cut-off is given here.
# Key:
# A-375 [1] = test: Antiproliferative activity against human A375 cells after 48 hrs by MTT assay; format: functional, cell-based; details: A-375, 48 h
# MIA PaCa-2 [2] = test: Antiproliferative activity against human MIAPaCa2 cells after 48 hrs by MTT assay; format: functional, cell-based; details: MIA PaCa-2, 48 h
# Caco-2 = test: Antiproliferative activity against human Caco2 cells after 48 hrs by MTT assay; format: functional, cell-based; details: Caco-2, 48 h
# A549 = test: Antiproliferative activity against human A549 cells after 48 hrs by MTT assay; format: functional, cell-based; details: A549, 48 h
# PC-3 = test: Antiproliferative activity against human PC3 cells after 48 hrs by MTT assay; format: functional, cell-based; details: PC-3, 48 h
# [3] = Antiproliferative activity against human HPDEC after 48 hrs by MTT assay; format: cell-based
# A-375 [4] = test: Antiproliferative activity against human A375 cells assessed as reduction in cell viability at IC50 after 24 hrs by calcein AM staining based confocal microscopy; format: functional
# MIA PaCa-2 [5] = test: Antiproliferative activity against human MIAPaCa2 cells assessed as reduction in cell viability at IC50 after 24 hrs by calcein AM staining based confocal microscopy; format: functional
# A-375 [6] = test: Antiproliferative activity against human A375 cells assessed as reduction in colony formation measured after 10 to 14 days by crystal violet staining based microscopic method; format: functional, cell-based
# MIA PaCa-2 [7] = test: Antiproliferative activity against human MIAPaCa2 cells assessed as reduction in colony formation measured after 10 to 14 days by crystal violet staining based microscopic method; format: functional, cell-based
# MIA PaCa-2 [8] = test: Cell cycle arrest in human MIAPaCa2 cells assessed as accumulation at G2/M phase at IC50 after 48 hrs by propidium iodide staining based flow cytometry; format: functional
# A-375 [9] = test: Cell cycle arrest in human A375 cells assessed as accumulation at G2/M phase at IC50 after 48 hrs by propidium iodide staining based flow cytometry; format: functional
# A-375 [10] = test: Cell cycle arrest in human A375 cells assessed as decrease in G1 population at IC50 after 48 hrs by propidium iodide staining based flow cytometry; format: functional
# MIA PaCa-2 [11] = test: Cell cycle arrest in human MIAPaCa2 cells assessed as decrease in G1 population at IC50 after 48 hrs by propidium iodide staining based flow cytometry; format: functional
# A-375 [12] = test: Cell cycle arrest in human A375 cells assessed as accumulation at sub-G0/G1 phase at IC50 after 48 hrs by propidium iodide staining based flow cytometry; format: functional
# MIA PaCa-2 [13] = test: Cell cycle arrest in human MIAPaCa2 cells assessed as accumulation at sub-G0/G1 phase at IC50 after 48 hrs by propidium iodide staining based flow cytometry; format: functional
Compound,IC50 (A-375 [1]),IC50 (MIA PaCa-2 [2]),IC50 (Caco-2),IC50 (A549),IC50 (PC-3),IC50 [3],Activity (A-375 [4]),Activity (MIA PaCa-2 [5]),Activity (A-375 [6]),Activity (MIA PaCa-2 [7]),Activity (MIA PaCa-2 [8]),Activity (A-375 [9]),Activity (A-375 [10]),Activity (MIA PaCa-2 [11]),Activity (A-375 [12]),Activity (MIA PaCa-2 [13])
Cc1sc(-c2ccccc2)c(C(=O)c2ccccc2)c1C,31.1 µM,> 100 µM,38 µM,21.9 µM,39.5 µM,,,,,,,,,,,
COc1cc(C(=O)c2c(C#Cc3ccccc3)sc3c2CCCC3)cc(OC)c1OC,3.88 µM,5.08 µM,8.26 µM,12.9 µM,15.5 µM,> 50 µM,,,,,,,,,,
O=C(c1ccccc1)c1c(-c2ccccc2)sc2c1CCCC2,16.3 µM,18.2 µM,20.4 µM,14 µM,23.8 µM,,,,,,,,,,,
O=C(c1ccc([N+](=O)[O-])cc1)c1c(-c2ccccc2)sc2c1CCCC2,20.5 µM,13.2 µM,28.1 µM,24.2 µM,14.6 µM,,,,,,,,,,,
COc1ccc(C(=O)c2c(C#Cc3ccccc3)sc3c2CCCC3)cc1,1.9 µM,35.2 µM,16.8 µM,8.14 µM,14.5 µM,35.6 µM,,,,,,,,,,
O=C(c1ccc([N+](=O)[O-])cc1)c1c(C#Cc2ccccc2)sc2c1CCCC2,0.81 µM,3 µM,4.52 µM,2.8 µM,12.3 µM,> 50 µM,Active,Active,Active,Active,Active,Active,Active,Active,Active,Active
Cc1ccc(C#Cc2sc(C)c(C)c2C(=O)c2ccccc2)cc1,> 100 µM,69.8 µM,> 100 µM,> 100 µM,51.4 µM,,,,,,,,,,,
Cc1ccc(C#Cc2sc3c(c2C(=O)c2ccc([N+](=O)[O-])cc2)CCCC3)cc1,13.1 µM,16.4 µM,34.2 µM,30.1 µM,21.4 µM,,,,,,,,,,,
COc1ccc(C(=O)c2c(C#Cc3ccccc3)sc(C)c2C)cc1,9.35 µM,29.4 µM,18.3 µM,13.6 µM,21.4 µM,,,,,,,,,,,
Cc1ccc(C(=O)c2c(-c3ccccc3)sc(C)c2C)cc1,51.2 µM,> 100 µM,> 100 µM,> 100 µM,26 µM,,,,,,,,,,,
CC(=O)O[C@H]1C(=O)[C@@]2(C)[C@H]([C@H](OC(=O)c3ccccc3)[C@]3(O)C[C@H](OC(=O)[C@H](O)[C@@H](NC(=O)c4ccccc4)c4ccccc4)C(C)=C1C3(C)C)[C@]1(OC(C)=O)CO[C@@H]1C[C@@H]2O [PACLITAXEL],0.68 µM,2.5 µM,2.8 µM,0.4 µM,1.9 µM,,,,,,,,,,,
Cc1ccc(C(=O)c2c(C#Cc3ccccc3)sc3c2CCCC3)cc1,10.1 µM,17.2 µM,10.4 µM,11.3 µM,20.4 µM,,,,,,,,,,,
Cc1ccc(C(=O)c2c(C#Cc3ccccc3)sc(C)c2C)cc1,43.2 µM,> 100 µM,> 100 µM,39.5 µM,25.4 µM,,,,,,,,,,,
Cc1ccc(C(=O)c2c(-c3ccccc3)sc3c2CCCC3)cc1,27 µM,36.4 µM,47.6 µM,32.7 µM,37.5 µM,,,,,,,,,,,
Cc1ccc(C#Cc2sc3c(c2C(=O)c2ccc(C)cc2)CCCC3)cc1,30.7 µM,42 µM,31.5 µM,27.3 µM,48.2 µM,,,,,,,,,,,
Cc1ccc(C#Cc2sc(C)c(C)c2C(=O)c2ccc([N+](=O)[O-])cc2)cc1,26.4 µM,79 µM,31.4 µM,> 100 µM,40.6 µM,,,,,,,,,,,
COc1cc(C(=O)c2c(C#Cc3ccc(C)cc3)sc3c2CCCC3)cc(OC)c1OC,22.5 µM,21.2 µM,28.3 µM,18.9 µM,37.5 µM,,,,,,,,,,,
O=C(c1ccccc1)c1c(-c2ccccc2)sc2c1CCCCC2,7.72 µM,12 µM,18.1 µM,15.8 µM,22.1 µM,14.6 µM,,,,,,,,,,
Cc1sc(-c2ccccc2)c(C(=O)c2ccc([N+](=O)[O-])cc2)c1C,> 100 µM,23.7 µM,64.7 µM,31 µM,> 100 µM,,,,,,,,,,,
Cc1sc(C#Cc2ccccc2)c(C(=O)c2ccccc2)c1C,28 µM,31.2 µM,34.2 µM,24 µM,31.5 µM,,,,,,,,,,,
O=C(c1ccccc1)c1c(C#Cc2ccccc2)sc2c1CCCC2,4.63 µM,8.48 µM,14.8 µM,20.2 µM,23.1 µM,18.9 µM,,,,,,,,,,
Cc1ccc(C#Cc2sc(C)c(C)c2C(=O)c2ccc(C)cc2)cc1,> 100 µM,> 100 µM,> 100 µM,45.3 µM,> 100 µM,,,,,,,,,,,
O=C(c1ccc([N+](=O)[O-])cc1)c1c(-c2ccccc2)sc2c1CCCCC2,1.07 µM,5.35 µM,6.1 µM,5.39 µM,40.1 µM,> 50 µM,Active,Active,Active,Active,Active,Active,Active,Active,Active,Active
COc1cc(C(=O)c2c(C#Cc3ccccc3)sc(C)c2C)cc(OC)c1OC,1.17 µM,4.32 µM,7.49 µM,6.51 µM,6.49 µM,36.1 µM,,,,,,,,,,
Cc1ccc(C#Cc2sc3c(c2C(=O)c2ccccc2)CCCC3)cc1,> 100 µM,> 100 µM,> 100 µM,> 100 µM,> 100 µM,,,,,,,,,,,
Cc1sc(C#Cc2ccccc2)c(C(=O)c2ccc([N+](=O)[O-])cc2)c1C,21.2 µM,21.9 µM,25.1 µM,19 µM,33.4 µM,,,,,,,,,,,
COc1ccc(C(=O)c2c(-c3ccccc3)sc3c2CCCC3)cc1,5.34 µM,8.84 µM,18.6 µM,9.42 µM,23.4 µM,21.4 µM,,,,,,,,,,
Cc1ccc(C(=O)c2c(-c3ccccc3)sc3c2CCCCC3)cc1,3.71 µM,24.6 µM,15.7 µM,6.28 µM,23.4 µM,25.8 µM,,,,,,,,,,
